For 12 molecules, AC50, IC50 and EC50 results are on record in ChEMBL document CHEMBL1201862, “PubChem BioAssay data set” (2004).

Activity calls are given as the source filed them. Where only a bound is given, the exact number is not on record here.

In one data set the target is Cytochrome P450 3A4 (Homo sapiens, UniProt P08684).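 Also: CYP3A4 tested as one member of a cytochrome P450 panel screen.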
Data set [1] in a line: HEK-293T viability loss after treatment – luminescence, T-cell screen hits, cytotoxicity control for TCR NF-kB inhibitor project, dose response (AID 489026).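 Also: cells exposed to compound about 14 hours before the viability readout.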 It counts as functional, cell-based.
Another data set concerns Escherichia coli. Description: microbe, parasite or virus in culture.
In data set [2] the target is T1, Heat shock factor protein 1 (Mus musculus, UniProt P38532).
T1 sequence (P38532 whole entry): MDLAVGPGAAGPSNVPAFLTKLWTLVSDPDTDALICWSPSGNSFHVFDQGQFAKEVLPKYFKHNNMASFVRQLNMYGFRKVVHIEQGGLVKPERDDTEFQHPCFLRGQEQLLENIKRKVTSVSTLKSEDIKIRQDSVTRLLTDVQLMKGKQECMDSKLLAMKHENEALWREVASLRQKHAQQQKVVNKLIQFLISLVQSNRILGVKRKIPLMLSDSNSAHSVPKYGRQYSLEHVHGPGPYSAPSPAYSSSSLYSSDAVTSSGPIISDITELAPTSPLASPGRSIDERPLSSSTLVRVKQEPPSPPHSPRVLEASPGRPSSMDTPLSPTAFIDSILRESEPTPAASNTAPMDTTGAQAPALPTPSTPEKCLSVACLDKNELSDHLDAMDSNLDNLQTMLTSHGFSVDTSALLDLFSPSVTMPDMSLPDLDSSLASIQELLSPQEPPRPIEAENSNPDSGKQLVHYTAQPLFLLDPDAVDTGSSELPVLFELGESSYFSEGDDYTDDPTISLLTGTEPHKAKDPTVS
Description: decrease of HSF1-responsive luciferase luminescence – cell-based, NIH3T3, dose retest, confirmation (AID 2382).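 Also: NIH3T3 fibroblasts with HSF1-driven luciferase reporter stressed by proteasome inhibitor MG132; luminescence from HSF1-driven luciferase expression after 8 hours of MG132 stress.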 Format: functional.

A further data set addresses Paired box protein Pax-8 (Homo sapiens, UniProt Q06710). Description: PAX8 transcriptional activity inhibition in RMG-I – RMG-I cells, luciferase, cherry-pick, dose response (AID 687027).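 Also: luciferase reporter driven by Pax8 target thyroperoxidase promoter measured by SteadyGlo luminescence.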 Format: functional, cell-based.
Data set [3] addresses Glyceraldehyde-3-phosphate dehydrogenase (Homo sapiens, UniProt P04406).
Data set [4] has as its target T2, Alkaline phosphatase, tissue-nonspecific isozyme (Homo sapiens, UniProt P05186).
T2 sequence (P05186 whole entry): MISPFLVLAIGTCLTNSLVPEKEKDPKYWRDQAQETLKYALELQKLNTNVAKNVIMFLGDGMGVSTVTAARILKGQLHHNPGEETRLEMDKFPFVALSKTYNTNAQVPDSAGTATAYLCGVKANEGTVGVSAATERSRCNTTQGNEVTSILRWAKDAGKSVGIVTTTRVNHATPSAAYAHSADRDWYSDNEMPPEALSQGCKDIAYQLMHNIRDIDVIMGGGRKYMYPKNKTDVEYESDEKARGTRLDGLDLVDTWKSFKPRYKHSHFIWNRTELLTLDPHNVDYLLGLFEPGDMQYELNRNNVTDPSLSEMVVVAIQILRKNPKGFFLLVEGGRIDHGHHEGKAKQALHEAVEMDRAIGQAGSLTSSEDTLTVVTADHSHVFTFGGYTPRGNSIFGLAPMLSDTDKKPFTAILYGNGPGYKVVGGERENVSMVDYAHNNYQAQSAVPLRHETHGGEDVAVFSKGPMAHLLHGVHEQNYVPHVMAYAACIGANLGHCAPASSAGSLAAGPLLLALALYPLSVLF
Description: potency against alkaline phosphatase TNAP – biochemical, luminescent, dose response, SAR follow-up (AID 1056).

In data set [5] the test system is BJ. Briefly: cells. Conditions: Homo sapiens, read-out: EC50. Format: functional, cell-based.
Data set [6] concerns BJ. Description: BJ-TERT fibroblast viability loss – cell-based, RAS-independent, luminescence, dose response (AID 1933). Conditions: Homo sapiens. Format: functional.
Data set [7] in a line: viability of HCT116 lacking mutant beta-catenin – cell-based, human colon tumor, dose response (AID 1045).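 Also: HCT116 colon tumor cells with beta catenin knocked out; cells exposed to compound for 60 hours.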 It counts as functional.
Data set [8] concerns BJ. Briefly: BJ-TERT-LT-ST fibroblast viability loss – cell-based, RAS-independent, luminescence, dose response (AID 1935).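 Also: BJ fibroblasts immortalized with TERT plus LT and ST oncogenes.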 It counts as functional. Conditions: Homo sapiens.
A short description of data set [9]: DRD fibroblast viability loss – cell-based, non-viral oncogenic, luminescence, dose response (AID 1934). Conditions: Homo sapiens. It counts as functional.
The nature of data set [10]: viability of PTEN-deleted HCT116 cells – cell-based, HCT116 PTEN knockout, dose response (AID 1047).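 Also: HCT116 colon tumor cells with PTEN knocked out; cells exposed to compound for 60 hours before readout; potency for loss of cell viability measured by luminescence.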 It counts as functional.

Sequence of Cytochrome P450 3A4 (P08684 whole entry): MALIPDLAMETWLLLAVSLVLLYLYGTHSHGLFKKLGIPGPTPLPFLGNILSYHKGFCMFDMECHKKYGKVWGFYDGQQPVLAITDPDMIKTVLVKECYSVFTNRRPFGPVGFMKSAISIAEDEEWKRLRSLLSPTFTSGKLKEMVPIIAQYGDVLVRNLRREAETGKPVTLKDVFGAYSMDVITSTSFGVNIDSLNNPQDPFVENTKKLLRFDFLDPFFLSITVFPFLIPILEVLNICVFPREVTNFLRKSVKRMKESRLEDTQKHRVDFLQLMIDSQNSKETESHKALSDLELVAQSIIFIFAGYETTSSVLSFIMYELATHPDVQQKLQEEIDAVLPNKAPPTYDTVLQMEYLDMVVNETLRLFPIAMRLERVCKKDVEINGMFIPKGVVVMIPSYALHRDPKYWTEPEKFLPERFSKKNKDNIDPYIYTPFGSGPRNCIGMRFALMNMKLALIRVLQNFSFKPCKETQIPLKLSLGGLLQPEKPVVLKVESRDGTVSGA
Sequence of Glyceraldehyde-3-phosphate dehydrogenase (P04406 whole entry): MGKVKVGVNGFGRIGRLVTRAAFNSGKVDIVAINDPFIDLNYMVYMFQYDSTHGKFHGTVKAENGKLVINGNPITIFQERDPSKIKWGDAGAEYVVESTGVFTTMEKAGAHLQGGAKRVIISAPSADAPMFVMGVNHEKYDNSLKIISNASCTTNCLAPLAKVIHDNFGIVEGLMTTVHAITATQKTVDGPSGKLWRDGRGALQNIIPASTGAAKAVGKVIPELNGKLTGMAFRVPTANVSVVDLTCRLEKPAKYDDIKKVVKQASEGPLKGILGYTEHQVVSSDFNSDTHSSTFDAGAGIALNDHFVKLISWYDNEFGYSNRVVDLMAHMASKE
Sequence of Paired box protein Pax-8 (Q06710 whole entry): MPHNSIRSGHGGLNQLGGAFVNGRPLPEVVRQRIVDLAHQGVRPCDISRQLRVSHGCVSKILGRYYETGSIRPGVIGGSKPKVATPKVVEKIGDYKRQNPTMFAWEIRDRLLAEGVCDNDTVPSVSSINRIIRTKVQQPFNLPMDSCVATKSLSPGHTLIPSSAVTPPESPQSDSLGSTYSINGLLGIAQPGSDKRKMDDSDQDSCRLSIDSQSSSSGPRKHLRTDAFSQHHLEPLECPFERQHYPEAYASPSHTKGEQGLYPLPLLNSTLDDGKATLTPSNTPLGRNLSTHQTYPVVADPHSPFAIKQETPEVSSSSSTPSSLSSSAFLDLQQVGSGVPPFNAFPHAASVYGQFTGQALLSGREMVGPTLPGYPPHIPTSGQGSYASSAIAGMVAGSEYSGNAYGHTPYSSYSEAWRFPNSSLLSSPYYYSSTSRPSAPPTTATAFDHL

Consider `CS(=O)(=O)N1CCC2(CC1)CN(C(c1ccccc1)c1ccccc1)C2`, for which the AC50 entry on Cytochrome P450 3A4 is “inconclusive”.

Turning to `CCn1ncc(C2=NOC(C(=O)NCc3ccccc3)C2)c1C` (configuration not stated), the IC50 in [1] is > 80 µM (inactive). Regarding `O=C(O)C1C(=O)NCC1c1ccccc1` (configuration not stated), the AC50 in the data set on Escherichia coli was 24.3 µM (active).

`C/N=c1\scc(-c2cccs2)n1/N=C/c1ccccc1O`: the EC50 in data set [2] was < 0.16 µM (active). The IC50 in data set [1] is > 80 µM (inactive). Further, at Paired box protein Pax-8, the AC50 was < 0.26 µM (active).

In the case of `COc1ccc(CNC(C)(C)C)cc1Cl.Cl`, the AC50 result on Cytochrome P450 3A4 is recorded as “inconclusive”. Take `COc1cccc(S(=O)(=O)Nc2ccncn2)c1`: the IC50 in data set [3] was > 100 µM (not active); in [4], > 100 µM (inactive). In the case of `Cc1ccc(-c2cc(C(=O)OCC(=O)N(C)c3c(N)n(Cc4ccccc4)c(=O)[nH]c3=O)c3ccccc3n2)o1`, the AC50 in the data set with Escherichia coli is 25.8 µM (active). On the same count and under the same terms, the same measure for `Cc1nc2scc(-c3ccccc3)c2c(=O)n1/N=C/c1ccco1`: 23.4 µM (active). `CC1(C)CC(=O)c2cnc(N)nc2C1`: the AC50 result on Cytochrome P450 3A4 is on record as “inconclusive”.

Regarding `COc1cc(C(=O)N2CCN(c3cccc(C)c3C)CC2)cc(OC)c1OC`, the EC50 was 20.4 µM (active) in the data set with BJ [5]; 7.81 µM (inconclusive) with BJ [6]; 0.721 µM (active) in [7]; 4.12 µM (active) in the data set with BJ [8]; 11.8 µM (inconclusive) in data set [9]; 0.876 µM (active) in data set [10]. Moreover, the IC50 in [1] was > 80 µM (inactive). On to `CC(C)NC(=O)N1CCC2(CC1)CCN(C(=O)Oc1ccccc1)CC2`, for which the AC50 entry on Cytochrome P450 3A4 was “inconclusive”. Consider `Cc1c(C(=O)O)nnn1-c1ccc(Cl)cc1`, for which the IC50 in [3] was > 100 µM (not active); in data set [4], > 100 µM (inactive).
